Data as given in US20250122173A1, “MODULATORS OF RHO-ASSOCIATED PROTEIN KINASE” (Redx Pharma Limited, priority 2022, published 2025).

Columns and labels:
ROCK1 = ROCK1 (Homo sapiens, UniProt Q13464); assay: ROCK1 inhibition assay (ROCK1 binding activity, as determined by the assay described for ROCK2); assay type: biochemical; conditions: read-out: ROCK 1 (IC50 category)
Procedure: Assay for ROCK2 inhibition was performed using the protein construct N-terminal 6His-tagged ROCK2 catalytic domain 11-552 (Dundee University, UK). Protein was purified from a baculovirus expression system. Long S6 peptide ([…]) was used as substrate. Kinase reactions were carried out in 15 μl volume in a 96-well plate (black, half area) using 1.25 nM constitutively active ROCK2 kinase, 100 μM long S6 peptide, 20 μM ATP and test compound in DMSO (or DMSO only for controls). The final concentration of DMSO was 1%. Assay buffer was 50 mM HEPES pH 7.5 supplemented with 0.2 mM EDTA, 10 mM magnesium acetate, 0.01% Tween-20, 1 mM DTT and 0.01% BSA. Test compounds were pre-incubated with ROCK2 kinase for 1 hour before addition of ATP and long S6 peptide. After incubation for a further 1 hour, the amount of ADP produced was measured using ADP-Glo Kinase Assay (Promega) as per manufacturer's instructions. The luminescence was measured on a PHERAstar FS (BMG Labtech). The concentration of test compound required to inhibit ADP production by 50% (the IC50) was calculated using a four-parameter logistic function with software by Dotmatics. […] The category “+” refers to compounds with a ROCK2 or ROCK1 IC50 value of >10 μM. The category “++” refers to compounds with a ROCK2 or ROCK1 IC50 value of 10 to 3 μM. The category “+++” refers to compounds with a ROCK1 or ROCK2 IC50 value of 3 to 0.3 μM. The category “++++” refers to compounds with a ROCK1 or ROCK2 IC50 value of <0.3 μM.

ROCK2 = target: T1, ROCK2 (Homo sapiens, UniProt O75116); assay: ROCK2 inhibition assay (ADP-Glo kinase assay, called ROCK2 binding activity); assay type: biochemical; conditions: 20 μM ATP, 1 hour pre-incubation, read-out: ROCK 2 (IC50 category)
T1 construct: N-terminal 6His-tagged ROCK2 catalytic domain 11-552; 6His (N); purchased Dundee University, UK; host or cells: baculovirus expression system
Procedure: ROCK2 Binding Activity: Assay for ROCK2 inhibition was performed using the protein construct N-terminal 6His-tagged ROCK2 catalytic domain 11-552 (Dundee University, UK). Protein was purified from a baculovirus expression system. Long S6 peptide ([…]) was used as substrate. Kinase reactions were carried out in 15 μl volume in a 96-well plate (black, half area) using 1.25 nM constitutively active ROCK2 kinase, 100 μM long S6 peptide, 20 μM ATP and test compound in DMSO (or DMSO only for controls). The final concentration of DMSO was 1%. Assay buffer was 50 mM HEPES pH 7.5 supplemented with 0.2 mM EDTA, 10 mM magnesium acetate, 0.01% Tween-20, 1 mM DTT and 0.01% BSA. Test compounds were pre-incubated with ROCK2 kinase for 1 hour before addition of ATP and long S6 peptide. After incubation for a further 1 hour, the amount of ADP produced was measured using ADP-Glo Kinase Assay (Promega) as per manufacturer's instructions. The luminescence was measured on a PHERAstar FS (BMG Labtech). The concentration of test compound required to inhibit ADP production by 50% (the IC50) was calculated using a four-parameter logistic function with software by Dotmatics. […] The category “+” refers to compounds with a ROCK2 or ROCK1 IC50 value of >10 μM. The category “++” refers to compounds with a ROCK2 or ROCK1 IC50 value of 10 to 3 μM. The category “+++” refers to compounds with a ROCK1 or ROCK2 IC50 value of 3 to 0.3 μM. The category “++++” refers to compounds with a ROCK1 or ROCK2 IC50 value of <0.3 μM.

ROCK1, sequence (Q13464 whole entry, the tested form may be a part): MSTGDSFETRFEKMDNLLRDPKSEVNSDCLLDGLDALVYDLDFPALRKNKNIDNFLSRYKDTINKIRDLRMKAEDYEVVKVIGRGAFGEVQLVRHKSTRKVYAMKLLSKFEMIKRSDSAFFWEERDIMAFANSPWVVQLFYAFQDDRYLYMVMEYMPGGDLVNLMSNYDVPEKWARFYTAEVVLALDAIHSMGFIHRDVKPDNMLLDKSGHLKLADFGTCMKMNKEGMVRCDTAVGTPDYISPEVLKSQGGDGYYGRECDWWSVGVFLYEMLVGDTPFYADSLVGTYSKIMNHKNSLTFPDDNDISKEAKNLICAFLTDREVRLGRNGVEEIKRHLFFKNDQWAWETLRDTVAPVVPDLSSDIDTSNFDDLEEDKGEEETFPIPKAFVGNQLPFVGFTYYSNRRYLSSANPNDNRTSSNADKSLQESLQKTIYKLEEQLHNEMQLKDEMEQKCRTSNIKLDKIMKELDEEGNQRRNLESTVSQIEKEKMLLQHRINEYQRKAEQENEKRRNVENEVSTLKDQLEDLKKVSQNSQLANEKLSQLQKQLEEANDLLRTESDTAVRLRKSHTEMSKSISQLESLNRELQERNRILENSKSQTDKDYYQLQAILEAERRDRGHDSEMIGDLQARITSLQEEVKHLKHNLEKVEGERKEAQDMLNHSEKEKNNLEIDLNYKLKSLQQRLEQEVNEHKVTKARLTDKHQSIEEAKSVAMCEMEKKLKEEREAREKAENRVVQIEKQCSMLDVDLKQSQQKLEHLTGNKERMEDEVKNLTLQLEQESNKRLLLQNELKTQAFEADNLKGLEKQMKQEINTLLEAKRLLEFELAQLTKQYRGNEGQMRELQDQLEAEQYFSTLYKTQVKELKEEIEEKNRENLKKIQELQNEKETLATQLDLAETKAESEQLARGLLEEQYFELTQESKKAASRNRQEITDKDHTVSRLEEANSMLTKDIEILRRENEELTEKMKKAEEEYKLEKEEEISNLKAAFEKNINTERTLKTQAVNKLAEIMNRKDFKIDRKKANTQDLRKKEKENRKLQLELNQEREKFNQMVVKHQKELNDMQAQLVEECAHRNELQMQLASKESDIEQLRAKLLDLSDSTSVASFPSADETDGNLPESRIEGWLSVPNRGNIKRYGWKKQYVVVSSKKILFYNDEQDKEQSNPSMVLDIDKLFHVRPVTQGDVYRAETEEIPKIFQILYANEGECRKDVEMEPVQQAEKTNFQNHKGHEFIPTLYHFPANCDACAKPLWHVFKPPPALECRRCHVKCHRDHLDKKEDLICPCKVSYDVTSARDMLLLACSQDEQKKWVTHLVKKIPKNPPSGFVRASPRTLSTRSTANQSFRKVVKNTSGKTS
T1 sequence (O75116 11-552): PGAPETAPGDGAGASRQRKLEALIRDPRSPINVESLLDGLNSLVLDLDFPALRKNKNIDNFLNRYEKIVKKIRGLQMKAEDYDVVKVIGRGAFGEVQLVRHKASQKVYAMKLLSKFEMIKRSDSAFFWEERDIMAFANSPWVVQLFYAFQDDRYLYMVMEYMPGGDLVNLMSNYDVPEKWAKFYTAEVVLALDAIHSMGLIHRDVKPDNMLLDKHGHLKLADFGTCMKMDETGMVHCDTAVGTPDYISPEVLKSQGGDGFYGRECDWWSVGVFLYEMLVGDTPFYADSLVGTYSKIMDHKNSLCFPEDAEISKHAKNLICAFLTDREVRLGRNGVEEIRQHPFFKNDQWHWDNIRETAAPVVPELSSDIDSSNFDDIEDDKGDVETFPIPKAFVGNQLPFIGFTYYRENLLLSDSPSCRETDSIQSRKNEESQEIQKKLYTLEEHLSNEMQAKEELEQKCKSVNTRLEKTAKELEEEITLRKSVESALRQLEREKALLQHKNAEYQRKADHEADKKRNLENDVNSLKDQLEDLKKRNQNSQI

Row | Structure (SMILES) | IC50 (ROCK1) [µM] | IC50 (ROCK2) [nM]
1 | CCn1nc(-c2ccc(-c3ccc(C)c(C)n3)c(C)c2)nc1Nc1cc2c(cc1C)C(=O)NC2C (centres unmarked) [Example 100] | > 10 | < 300
2 | CCn1nc(-c2ccc(-c3cc(C)cc(C)n3)c(C)c2)nc1Nc1cc2c(cc1C)C(=O)NC2C (centres unmarked) [Example 101] | 3 to 10 | < 300
3 | CCn1nc(-c2ccc(-c3ccc(C4CC4)cn3)c(C)c2)nc1Nc1cc2c(cc1C)C(=O)NC2C (centres unmarked) [Example 103] | 3 to 10 | < 300
4 | CCn1nc(-c2cnc(-c3ccc(C4CC4)cc3)c(C)c2)nc1Nc1cc2c(cc1C)C(=O)NC2C (centres unmarked) [Example 105] | 3 to 10 | < 300
5 | CCn1nc(-c2cc(C)c(-c3ccc(C4CC4)nc3)cc2F)nc1Nc1ccc2c(c1)C(C)NC2=O (centres unmarked) [Example 106] | 3 to 10 | < 300
6 | CCn1nc(-c2ccc(-c3nc(C)ccc3C)c(C)c2)nc1Nc1cc2c(cc1C)C(=O)NC2C (centres unmarked) [Example 107] | > 10 | 3000 to 10000
7 | CCn1nc(-c2ccc(-c3cn(C)c(C4CC4)n3)c(F)c2)nc1Nc1ccc2c(c1)C(C)NC2=O (centres unmarked) [Example 108] | 3 to 10 | < 300
8 | CCn1nc(-c2cc(C)c(-c3ccc(C4CC4)cn3)cc2F)nc1Nc1cc2c(cc1C)C(=O)NC2C (centres unmarked) [Example 109] | 3 to 10 | < 300
9 | CCn1nc(-c2ccc(-c3ccc(C)nc3)nc2)nc1Nc1ccc2c(c1)C(C)NC2=O (centres unmarked) [Example 110] | > 10 | < 300
10 | CCn1nc(-c2cc(C)c(-c3ccc(C4CC4)nc3)cc2C)nc1Nc1ccc2c(c1)C(C)NC2=O (centres unmarked) [Example 111] | > 10 | < 300
11 | CCn1nc(-c2ccc(-c3ccc(C4CC4)cn3)c(C)c2)nc1Nc1ccc2c(c1)C(C)NC2=O (centres unmarked) [Example 112] | > 10 | < 300
12 | CCn1nc(-c2cc(C)c(-c3cn(C)c(C4CC4)n3)cc2F)nc1Nc1ccc2c(c1)C(C)NC2=O (centres unmarked) [Example 113] | 3 to 10 | < 300
13 | CCn1nc(-c2cc(C)c(-c3ccc(C4CC4)cn3)cc2C)nc1Nc1cc2c(cc1C)C(=O)NC2C (centres unmarked) [Example 114] | > 10 | < 300
14 | CCn1nc(-c2ccc(-c3ccc(C)nc3)c(C(=O)OC)c2)nc1Nc1cc2c(cc1C)C(=O)NC2C (centres unmarked) [Example 115] | > 10 | < 300
15 | CCn1nc(-c2ccc(C3=CCN(C)CC3)cc2)nc1Nc1cc2c(cc1C)C(=O)NC2C (centres unmarked) [Example 116] | > 10 | 3000 to 10000
16 | CCn1nc(-c2ccc(C3=CCN(C)CC3)cc2C)nc1Nc1cc2c(cc1C)C(=O)NC2C (centres unmarked) [Example 117] | > 10 | 300 to 3000

Row | Structure (SMILES) | IC50 (ROCK1) [µM] | IC50 (ROCK2) [nM]
17 | CCn1nc(-c2cc(C)c(-c3ccc(C)cn3)cc2F)nc1Nc1cc2c(cc1C)C(=O)NC2C (centres unmarked) [Example 120] | > 10 | < 300
18 | CCn1nc(-c2cnc(-c3ccc(C4CC4)nc3)c(C)c2)nc1Nc1cc2c(cc1C)C(=O)NC2C (centres unmarked) [Example 121] | > 10 | < 300
19 | CCn1nc(-c2ccc(-c3cn(C)c(C4CC4)n3)cc2C)nc1Nc1cc2c(cc1C)C(=O)NC2C (centres unmarked) [Example 122] | 3 to 10 | < 300
20 | CCn1nc(-c2ccc(-c3ccc(C)nc3)c(C(C)=O)c2)nc1Nc1cc2c(cc1C)C(=O)NC2C (centres unmarked) [Example 125] | > 10 | < 300
21 | CCn1nc(-c2ccc(-n3cnc(C4CC4)c3)cc2C)nc1Nc1cc2c(cc1C)C(=O)NC2C (centres unmarked) [Example 126] | 3 to 10 | < 300
22 | CCn1nc(-c2ccc(C3CCN(C)CC3)cc2C)nc1Nc1cc2c(cc1C)C(=O)NC2C (centres unmarked) [Example 128] | > 10 | > 10000
23 | CCn1nc(-c2ccc(C3CCN(CC(F)(F)F)CC3)cc2C)nc1Nc1cc2c(cc1C)C(=O)NC2C (centres unmarked) [Example 131] | > 10 | < 300
24 | CCn1nc(-c2cc(C)c(-c3ccc(C)cn3)cc2C)nc1Nc1ccc2c(c1)C(C)NC2=O (centres unmarked) [Example 133] | > 10 | < 300
25 | CCn1nc(-c2cc(C)c(-c3ccc(C4CC4)cn3)cc2F)nc1Nc1ccc2c(c1)C(C)NC2=O (centres unmarked) [Example 134] | > 10 | < 300
26 | CCn1nc(-c2cc(C)c(-c3ccc(C4CC4)cn3)cc2C)nc1Nc1ccc2c(c1)C(C)NC2=O (centres unmarked) [Example 135] | > 10 | < 300
27 | CCn1nc(-c2ccc(-c3ccc(C4CC4)cn3)nc2)nc1Nc1cc2c(cc1C)C(=O)NC2C (centres unmarked) [Example 137] | 0.3 to 3 | < 300
28 | CCn1nc(-c2ccc(C3CCCN(C)C3)c(C)c2)nc1Nc1cc2c(cc1C)C(=O)NC2C (centres unmarked) [Example 140] | > 10 | > 10000
29 | CCn1nc(-c2ccc(C3CCNCC3)c(C)c2)nc1Nc1cc2c(cc1C)C(=O)NC2C (centres unmarked) [Example 141] | > 10 | 3000 to 10000
30 | CCn1nc(-c2ccc(C3CCN(C)CC3)cc2)nc1Nc1cc2c(cc1C)C(=O)NC2C (centres unmarked) [Example 142] | > 10 | > 10000
31 | CCn1nc(-c2ccc(C3CCN(C)CC3)c(C)c2)nc1Nc1cc2c(cc1C)C(=O)NC2C (centres unmarked) [Example 144] | > 10 | > 10000
32 | CCn1nc(-c2ccc(C3CCC(C)NC3)c(C)c2)nc1Nc1cc2c(cc1C)C(=O)NC2C (centres unmarked) [Example 145, 5-[[2-ethyl-5-[3-methyl-4-(6-methyl-3-piperidyl)phenyl]-1,2,4-triazol-3-yl]amino]-3,6-dimethyl-isoindolin-1-one] | > 10 | 3000 to 10000

The remaining lines, values ahead:

Row | IC50 (ROCK1) [µM] | IC50 (ROCK2) [nM] | Structure (SMILES)
33 | 0.3 to 3 | < 300 | CCn1nc(-c2ccc(-c3ccc(C)nc3)cc2)nc1Nc1cc2c(cc1C)C(=O)NC2 [Example 102]
34 | 3 to 10 | < 300 | CCn1nc(-c2ccc(-c3ccc(C)cn3)cc2)nc1Nc1cc2c(cc1C)C(=O)NC2C (centres unmarked) [Example 104]
35 | > 10 | < 300 | CCn1nc(-c2ccc(C3=CCN(CC(F)(F)F)C3)c(C)c2)nc1Nc1cc2c(cc1C)C(=O)NC2C (centres unmarked) [Example 118]
36 | > 10 | 300 to 3000 | CCn1nc(-c2ccc(-c3ccc(C)nc3)c(C(C)(C)O)c2)nc1Nc1cc2c(cc1C)C(=O)NC2C (centres unmarked) [Example 119]
37 | > 10 | 300 to 3000 | CCn1nc(-c2ccc(C3CCN(CC(F)(F)F)CC3)cc2)nc1Nc1cc2c(cc1C)C(=O)NC2C (centres unmarked) [Example 123]
38 | 3 to 10 | < 300 | CCn1nc(-c2ccc(-c3ccn(CC(F)(F)F)c3)cc2)nc1Nc1cc2c(cc1C)C(=O)NC2C (centres unmarked) [Example 124]
39 | 0.3 to 3 | 300 to 3000 | CCn1nc(-c2ccc(C3CCN(C(C)C(F)(F)F)CC3)cc2)nc1Nc1cc2c(cc1C)C(=O)NC2C (centres unmarked) [Example 127]
40 | 3 to 10 | < 300 | CCn1nc(-c2ccc(-c3ccn(C)c3)c(C)c2)nc1Nc1cc2c(cc1C)C(=O)NC2C (centres unmarked) [Example 129]
41 | 3 to 10 | < 300 | CCn1nc(-c2ccc(-c3ccc(C4CC4)nc3)cc2)nc1Nc1cc2c(cc1F)C(=O)NC2C (centres unmarked) [Example 130]
42 | 3 to 10 | < 300 | CCn1nc(-c2ccc(-c3ccc(C)nc3)cc2F)nc1Nc1cc2c(cc1C)C(=O)NC2C (centres unmarked) [Example 132]
43 | 3 to 10 | < 300 | CCn1nc(-c2ccc(-c3ccn(C)c3)cc2)nc1Nc1cc2c(cc1C)C(=O)NC2C (centres unmarked) [Example 136]
44 | > 10 | < 300 | CCn1nc(-c2ccc(C3CCN(CC(F)(F)F)C3)c(C)c2)nc1Nc1cc2c(cc1C)C(=O)NC2C (centres unmarked) [Example 138]
45 | 0.3 to 3 | < 300 | CCn1nc(-c2ccc(-c3ccn(CC(F)(F)F)c3)c(C)c2)nc1Nc1cc2c(cc1C)C(=O)NC2C (centres unmarked) [Example 139]
46 | > 10 | 300 to 3000 | CCn1nc(-c2ccc(C3CCCN(CC(F)(F)F)C3)cc2)nc1Nc1cc2c(cc1F)C(=O)NC2C (centres unmarked) [Example 143]
